Assay results reported in the NIST ThermoML archive (doi:10.1016/j.fluid.2018.06.013).
± gives the expanded uncertainty stated by the source.

Assay: activity coefficient (dimensionless); of the first substance listed, at infinite dilution; xn = mol fraction of the nth substance listed
Details: 100 kPa, Liquid, Chromatography, x1 = 0

| SMILES | activity coefficient (313.15 K) | activity coefficient (323.15 K) | activity coefficient (343.15 K) | activity coefficient (363.15 K) | activity coefficient (373.15 K) |
| --- | --- | --- | --- | --- | --- |
| Cc1ccccc1C [1,2-dimethylbenzene] + CCCC[N+]1(C)CCCC1.N#CN=C=[N-] | 2.69 ± 0.28 | 2.75 ± 0.29 | 2.91 ± 0.31 | 3.1 ± 0.3 | 3.18 ± 0.33 |
| Cc1cccc(C)c1 [1,3-dimethylbenzene] + CCCC[N+]1(C)CCCC1.N#CN=C=[N-] | 3.36 ± 0.35 | 3.47 ± 0.36 | 3.58 ± 0.38 | 3.74 ± 0.39 | 3.81 ± 0.4 |
| Cc1ccc(C)cc1 [1,4-dimethylbenzene] + CCCC[N+]1(C)CCCC1.N#CN=C=[N-] | 3.24 ± 0.34 | 3.24 ± 0.34 | 3.47 ± 0.36 | 3.63 ± 0.38 | 3.73 ± 0.39 |
| C1COCCO1 [1,4-dioxane] + CCCC[N+]1(C)CCCC1.N#CN=C=[N-] | 0.909 ± 0.093 | 0.962 ± 0.098 | 1.05 ± 0.11 | 1.13 ± 0.12 | 1.17 ± 0.12 |
| C=CCCCCCCCC [1-decene] + CCCC[N+]1(C)CCCC1.N#CN=C=[N-] | 104 ± 11 | 98.2 ± 10 | 89.4 ± 9.4 | 83.7 ± 8.8 | 78.7 ± 8.3 |
| C=CCCCCC [1-heptene] + CCCC[N+]1(C)CCCC1.N#CN=C=[N-] | 31.5 ± 3.3 | 30.4 ± 3.2 | 29.2 ± 3.1 | 27.8 ± 2.9 | 27.7 ± 2.9 |
| C#CCCCCC [1-heptyne] + CCCC[N+]1(C)CCCC1.N#CN=C=[N-] | 5.76 ± 0.61 | 5.95 ± 0.63 | 6.39 ± 0.67 | 6.76 ± 0.71 | 6.92 ± 0.73 |
| C#CCCCC [1-hexyne] + CCCC[N+]1(C)CCCC1.N#CN=C=[N-] | 3.81 ± 0.4 | 3.98 ± 0.42 | 4.32 ± 0.45 | 4.61 ± 0.48 | 4.77 ± 0.5 |
| CCC[N+](=O)[O-] [1-nitropropane] + CCCC[N+]1(C)CCCC1.N#CN=C=[N-] | 0.721 ± 0.075 | 0.74 ± 0.077 | 0.789 ± 0.081 | 0.827 ± 0.085 | 0.838 ± 0.086 |
| C#CCCCCCC [1-octyne] + CCCC[N+]1(C)CCCC1.N#CN=C=[N-] | 8.87 ± 0.93 | 9.03 ± 0.95 | 9.41 ± 0.99 | 9.79 ± 1 | 9.87 ± 1 |
| CCOC(C)(C)C [2-ethoxy-2-methylpropane] + CCCC[N+]1(C)CCCC1.N#CN=C=[N-] | 17.2 ± 1.8 | 16.9 ± 1.8 | 16.9 ± 1.8 | 16.7 ± 1.8 | 16.1 ± 1.7 |
| CCC(C)(C)OC [2-methoxy-2-methylbutane] + CCCC[N+]1(C)CCCC1.N#CN=C=[N-] | 9.56 ± 1 | 9.39 ± 0.99 | 9.65 ± 1 | 9.77 ± 1 | 9.93 ± 1 |
| COC(C)(C)C [2-methoxy-2-methylpropane] + CCCC[N+]1(C)CCCC1.N#CN=C=[N-] | 6.25 ± 0.66 | 6.32 ± 0.66 | 6.55 ± 0.69 | 6.92 ± 0.73 | 7.15 ± 0.75 |
| CC(C)CO [2-methyl-1-propanol] + CCCC[N+]1(C)CCCC1.N#CN=C=[N-] | 0.872 ± 0.089 | 0.835 ± 0.086 | 0.785 ± 0.081 | 0.786 ± 0.081 | 0.764 ± 0.079 |
| C=C(C)c1ccccc1 [(1-methylethenyl)benzene] + CCCC[N+]1(C)CCCC1.N#CN=C=[N-] | 2.2 ± 0.23 | 2.37 ± 0.25 | 2.67 ± 0.28 | 2.89 ± 0.3 | 3.02 ± 0.32 |
| CC(C)=O [acetone] + CCCC[N+]1(C)CCCC1.N#CN=C=[N-] | 0.907 ± 0.093 | 0.91 ± 0.09 | 0.978 ± 0.099 | 1.04 ± 0.11 | 1.06 ± 0.11 |
| CC#N [acetonitrile] + CCCC[N+]1(C)CCCC1.N#CN=C=[N-] | 0.659 ± 0.069 | 0.668 ± 0.07 | 0.693 ± 0.072 | 0.72 ± 0.08 | 0.728 ± 0.076 |
| c1ccccc1 [benzene] + CCCC[N+]1(C)CCCC1.N#CN=C=[N-] | 1.38 ± 0.14 | 1.4 ± 0.14 | 1.49 ± 0.15 | 1.6 ± 0.2 | 1.62 ± 0.17 |
| CCCCO [butan-1-ol] + CCCC[N+]1(C)CCCC1.N#CN=C=[N-] | 0.897 ± 0.092 | 0.873 ± 0.089 | 0.844 ± 0.087 | 0.836 ± 0.086 | 0.814 ± 0.084 |
| CCC(C)O (stereo not given) [butan-2-ol] + CCCC[N+]1(C)CCCC1.N#CN=C=[N-] | 0.875 ± 0.09 | 0.888 ± 0.091 | 0.859 ± 0.088 | 0.869 ± 0.089 | 0.881 ± 0.09 |
| CCCC=O [butanal] + CCCC[N+]1(C)CCCC1.N#CN=C=[N-] | 1.4 ± 0.14 | 1.46 ± 0.15 | 1.53 ± 0.16 | 1.62 ± 0.17 | 1.67 ± 0.17 |
| C1=CCCCC1 [cyclohexene] + CCCC[N+]1(C)CCCC1.N#CN=C=[N-] | 9.06 ± 0.95 | 8.78 ± 0.92 | 8.65 ± 0.91 | 8.48 ± 0.89 | 8.26 ± 0.87 |
| CC(C)OC(C)C [diisopropyl ether] + CCCC[N+]1(C)CCCC1.N#CN=C=[N-] | 19.4 ± 2 | 18.8 ± 2 | 19.1 ± 2 | 18.6 ± 2 | 18.3 ± 1.9 |
| CCCOCCC [dipropyl ether] + CCCC[N+]1(C)CCCC1.N#CN=C=[N-] | 17.9 ± 1.9 | 17 ± 1.8 | 16.8 ± 1.8 | 16.6 ± 1.7 | 16.6 ± 1.7 |
| CCO [ethanol] + CCCC[N+]1(C)CCCC1.N#CN=C=[N-] | 0.533 ± 0.058 | 0.525 ± 0.057 | 0.52 ± 0.06 | 0.519 ± 0.057 | 0.521 ± 0.057 |
| CCOC(C)=O [ethyl acetate] + CCCC[N+]1(C)CCCC1.N#CN=C=[N-] | 2.35 ± 0.25 | 2.36 ± 0.25 | 2.48 ± 0.26 | 2.57 ± 0.27 | 2.61 ± 0.27 |
| CCc1ccccc1 [ethylbenzene] + CCCC[N+]1(C)CCCC1.N#CN=C=[N-] | 3.32 ± 0.35 | 3.43 ± 0.36 | 3.52 ± 0.37 | 3.7 ± 0.4 | 3.77 ± 0.4 |
| CCCCCCC [heptane] + CCCC[N+]1(C)CCCC1.N#CN=C=[N-] | 79.1 ± 8.3 | 74.6 ± 7.9 | 66.5 ± 7 | 60.2 ± 6.3 | 53.6 ± 5.6 |
| C=CCCCC [hex-1-ene] + CCCC[N+]1(C)CCCC1.N#CN=C=[N-] | 21 ± 2.2 | 20.3 ± 2.1 | 19.3 ± 2 | 18.4 ± 1.9 | 18.6 ± 2 |
| CO [methanol] + CCCC[N+]1(C)CCCC1.N#CN=C=[N-] | 0.336 ± 0.042 | 0.333 ± 0.041 | 0.339 ± 0.042 | 0.348 ± 0.043 | 0.353 ± 0.043 |
